Measurements from patent US20060002946A1, “Targeted immunogens” (Aventis Pasteur, Inc., priority 2003, published 2006).

Tests used:
[1] = system: HLA-A2/K^b transgenic mice; test: s.c. immunization without adjuvant, CTL assay (FIG. 3B); assay type: in vivo, mouse; conditions: 100 μg s.c. plus T-helper peptide, no adjuvant, boosts days 14 and 28
From the text: Mice were similarly boosted on days 14 and 28. […] Average responses from each group are shown.

[2] = system: HLA-A2/K^b transgenic mice; conditions: 100 μg s.c. plus T-helper peptide, no adjuvant, boosts days 14 and 28
From the text: Mice were similarly boosted on days 14 and 28. On day 42, splenocytes (2 mice per group) were individually restimulated in vitro for 6 days with the appropriate wild type peptide, and then tested for either IFN-γ secretion by ELISPOT (FIG. 3A) or CTL assay (FIG. 3B) using peptide-pulsed C1R-A2 cells. On day 57, the remaining mice in each group were similarly tested. Average responses from each group are shown.

[3] = system: HLA-A2/Kb transgenic mice; test: s.c. peptide immunization, gp100-154 CTL chromium release (FIG. 5); conditions: 50 ug s.c., boosts days 21 and 42, day 63
Description: CTL responses in HLA-A2/Kb transgenic mice following subcutaneous (s.c.) injection of peptide. Mice were immunized s.c. with 50 ug of the indicated peptides and boosted on days 21 and 42 following the first injection. Splenocytes from immunized animals were harvested on day 63 post immunization, re-stimulated with the native gp100-154 peptide for 5 days, and tested for CTL activity in a standard chromium release assay using target cells pulsed with gp100-154 peptide.
Furthermore, CTL responses were assessed in HLA-A2/K^b transgenic mice (Sherman strain) following s.c. immunization with gp100-154 peptide alone, conjugated to hPER1 or AntpHD with or without linker FVYVW. Mice were boosted on days 21 and 42 and splenocytes from vaccinated animals were harvested on day 63 and tested for CTL activity after 5 days of restimulation in vitro.

P815-A2/K^b cells = test: Sensitization of P815-A2/K^b target cells for CTL lysis, chromium release assay; assay type: cell-based, mouse
Description: FIG. 1. In vitro sensitization of target cells for peptide-specific lysis by hPER1 conjugates.
Further, ^51Cr-labeled P815-A2/K^b cells were pulsed with 10^−6 g/ml 280-9V peptide ([…]) or hPER1-280-9V ([…]) or were left untreated (no peptide) and incubated for 1 hour at 37° C. The cells were then washed and tested for CTL recognition in a standard 4-hour chromium release assay, using T cells obtained from the spleens of HLA-A2/K^b transgenic mice immunized with 280-9V peptide in incomplete Freund's adjuvant. Where indicated, 5 μg/ml brefeldin A (BFA) was included in the assay, to block the surface expression of nascent class I MHC molecules. […] The level of CTL killing is reduced if the hPER1-280-9V-pulsed target cells are treated with brefeldin A, which blocks the intracellular transport of newly synthesized MHC molecules.

[4] = system: PBMCs from an HLA-A2-positive patient; test: In vitro induction of human CTL in PBMC culture, chromium release assay; assay type: cell-based; conditions: repeated in vitro stimulation, day 42, C1R-A2 target cells pulsed with 280-9V
Description: FIG. 2. In vitro induction of human T cell responses using a hPER1 conjugate peptide.
Peripheral blood mononuclear cells (PBMCs) from an HLA-A2-positive patient were cultured in the presence of IL-2 (50 U/ml), IL-7 (10 ng/ml), LPS (10 μg/ml), CD40-ligand expressing 3T3 cells, and peptide (10 μg/ml of 280-9V or hPER1-280-9V). On days 11, 22, and 32 the cells were restimulated by culturing in the presence of IL-2 (50 U/ml) and IL-7 (10 ng/ml) and autologous, CD40-ligand activated PBMCs pulsed with peptide (100 μg/ml of 280-9V or hPER1-280-9V) for 3 hours.

| Sequence | peptide-specific CTL responses [1] | 154-specific IFN-γ responses (ELISPOT) [2] | CTL responses against gp100-154 [3] | level of CTL killing of peptide-pulsed target cells treated with brefeldin A (P815-A2/K^b cells; 5 μg/ml brefeldin A in the assay) | sensitization of P815-A2/K^b target cells for CTL recognition (P815-A2/K^b cells; 10^−6 g/ml peptide, 1 hour at 37° C., 4-hour chromium release) | induction of 280-9V-specific human CTLs [4] |
| --- | --- | --- | --- | --- | --- | --- |
| GRRHHRRSKAKRSRKTWGQYWQV | can be induced | can be induced | a weak response was observed |  |  |  |
| RRHHRRSKAKRSRYLEPGPVTV [hPER1-280-9V] | can be induced |  |  | reduced | can be sensitized | can be induced |
